Several values for one entry are separate records, joined by “and”; a condition that tells them apart may be missing. Equal entries are not always repeated. Where two headings read alike, the source gives them in different places.
Tests used:
[1] = solubility; format: physicochemical; settings: in vitro assessments
[2] = target: CYP3A4 (Homo sapiens, UniProt P08684); test: in vitro metabolism; format: in vitro ADME; settings: in vitro assessments
[3] = Example 3 Part 2 (Regimen B) dabigatran etexilate + belumosudil plasma PK; format: in vivo, human; settings: for half-life: read-out: T1/2, geometric mean (converted)
Protocol: The ratio was defined as test/reference. In addition, the intraparticipant variability were also presented. […] No formal interim analyses were performed for this study.

[4] = tested on: pregnant rats; settings: cited from earlier work
[5] = dosage range of 200 and 400 mg; cited from earlier work
[6] = healthy subjects, cited from earlier work
[7] = tested on: human […]1-acid glycoprotein; settings: in vitro; cited from earlier work
[8] = target: P-gp (Homo sapiens, UniProt P08183); settings: in vitro, cited from earlier work
[9] = target: T1, CYP1A2 (Homo sapiens, UniProt P05177); settings: in vitro; cited from earlier work
T1 sequence (P05177 1-516): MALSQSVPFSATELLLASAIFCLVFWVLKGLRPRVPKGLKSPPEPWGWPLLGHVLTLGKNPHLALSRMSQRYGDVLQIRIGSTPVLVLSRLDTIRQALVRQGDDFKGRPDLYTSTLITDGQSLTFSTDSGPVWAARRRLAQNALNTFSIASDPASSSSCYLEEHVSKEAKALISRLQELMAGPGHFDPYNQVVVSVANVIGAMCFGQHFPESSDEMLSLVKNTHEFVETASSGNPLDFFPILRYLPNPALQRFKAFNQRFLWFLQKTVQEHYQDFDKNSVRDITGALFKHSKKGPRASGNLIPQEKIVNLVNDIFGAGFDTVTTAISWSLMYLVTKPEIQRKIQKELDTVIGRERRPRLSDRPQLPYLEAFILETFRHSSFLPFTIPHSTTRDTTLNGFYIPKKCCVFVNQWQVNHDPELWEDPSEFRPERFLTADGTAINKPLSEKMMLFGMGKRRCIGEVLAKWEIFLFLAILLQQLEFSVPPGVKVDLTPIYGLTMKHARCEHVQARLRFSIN

[10] = target: CYP2C19 (Homo sapiens, UniProt P33261); settings: in vitro; cited from earlier work
[11] = target: T2, UGT1A1 (Homo sapiens, UniProt P22309); settings: in vitro; cited from earlier work
T2 sequence (P22309 26-533): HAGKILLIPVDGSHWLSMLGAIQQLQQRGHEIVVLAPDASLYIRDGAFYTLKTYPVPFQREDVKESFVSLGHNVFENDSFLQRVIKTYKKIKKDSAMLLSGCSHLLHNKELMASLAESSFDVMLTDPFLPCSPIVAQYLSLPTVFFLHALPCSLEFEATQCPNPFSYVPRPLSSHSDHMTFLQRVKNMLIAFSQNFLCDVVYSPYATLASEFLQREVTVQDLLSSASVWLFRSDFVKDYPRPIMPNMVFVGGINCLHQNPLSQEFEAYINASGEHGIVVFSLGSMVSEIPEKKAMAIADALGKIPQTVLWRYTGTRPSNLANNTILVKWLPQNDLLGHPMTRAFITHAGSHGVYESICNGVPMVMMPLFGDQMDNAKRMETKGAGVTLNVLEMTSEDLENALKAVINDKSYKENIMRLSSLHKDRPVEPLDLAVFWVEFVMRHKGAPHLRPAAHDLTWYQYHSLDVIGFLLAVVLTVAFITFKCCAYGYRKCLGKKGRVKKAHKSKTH

[12] = target: T3, UGT1A9 (Homo sapiens, UniProt O60656); settings: in vitro; cited from earlier work
T3 sequence (O60656 26-530): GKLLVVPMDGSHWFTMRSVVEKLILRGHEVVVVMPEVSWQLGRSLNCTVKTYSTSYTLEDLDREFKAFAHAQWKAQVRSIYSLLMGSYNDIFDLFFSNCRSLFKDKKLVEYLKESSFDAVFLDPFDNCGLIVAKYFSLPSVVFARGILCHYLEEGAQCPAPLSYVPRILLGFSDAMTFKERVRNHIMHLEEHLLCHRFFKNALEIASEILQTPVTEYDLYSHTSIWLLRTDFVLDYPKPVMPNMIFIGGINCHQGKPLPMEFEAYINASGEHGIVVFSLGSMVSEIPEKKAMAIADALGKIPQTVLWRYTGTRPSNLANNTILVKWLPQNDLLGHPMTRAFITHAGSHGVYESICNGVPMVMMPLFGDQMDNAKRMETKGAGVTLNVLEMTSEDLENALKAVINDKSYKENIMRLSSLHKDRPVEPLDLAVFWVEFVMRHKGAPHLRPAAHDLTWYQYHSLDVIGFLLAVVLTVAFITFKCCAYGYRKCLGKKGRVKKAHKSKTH

[13] = tested on: bacterial mutagenicity (Ames); settings: cited from earlier work
[14] = tested on: rat bone marrow; settings: rat bone marrow micronucleus; cited from earlier work
[15] = tested on: dogs; settings: cited from earlier work
[16] = Part 2, Belumosudil alone (Day 5), 200 mg
[17] = Part 2, Dabigatran etexilate + belumosudil (Day 12), 200 mg QD
[18] = single oral dose of radiolabeled belumosudil

P-gp, sequence (P08183 whole entry): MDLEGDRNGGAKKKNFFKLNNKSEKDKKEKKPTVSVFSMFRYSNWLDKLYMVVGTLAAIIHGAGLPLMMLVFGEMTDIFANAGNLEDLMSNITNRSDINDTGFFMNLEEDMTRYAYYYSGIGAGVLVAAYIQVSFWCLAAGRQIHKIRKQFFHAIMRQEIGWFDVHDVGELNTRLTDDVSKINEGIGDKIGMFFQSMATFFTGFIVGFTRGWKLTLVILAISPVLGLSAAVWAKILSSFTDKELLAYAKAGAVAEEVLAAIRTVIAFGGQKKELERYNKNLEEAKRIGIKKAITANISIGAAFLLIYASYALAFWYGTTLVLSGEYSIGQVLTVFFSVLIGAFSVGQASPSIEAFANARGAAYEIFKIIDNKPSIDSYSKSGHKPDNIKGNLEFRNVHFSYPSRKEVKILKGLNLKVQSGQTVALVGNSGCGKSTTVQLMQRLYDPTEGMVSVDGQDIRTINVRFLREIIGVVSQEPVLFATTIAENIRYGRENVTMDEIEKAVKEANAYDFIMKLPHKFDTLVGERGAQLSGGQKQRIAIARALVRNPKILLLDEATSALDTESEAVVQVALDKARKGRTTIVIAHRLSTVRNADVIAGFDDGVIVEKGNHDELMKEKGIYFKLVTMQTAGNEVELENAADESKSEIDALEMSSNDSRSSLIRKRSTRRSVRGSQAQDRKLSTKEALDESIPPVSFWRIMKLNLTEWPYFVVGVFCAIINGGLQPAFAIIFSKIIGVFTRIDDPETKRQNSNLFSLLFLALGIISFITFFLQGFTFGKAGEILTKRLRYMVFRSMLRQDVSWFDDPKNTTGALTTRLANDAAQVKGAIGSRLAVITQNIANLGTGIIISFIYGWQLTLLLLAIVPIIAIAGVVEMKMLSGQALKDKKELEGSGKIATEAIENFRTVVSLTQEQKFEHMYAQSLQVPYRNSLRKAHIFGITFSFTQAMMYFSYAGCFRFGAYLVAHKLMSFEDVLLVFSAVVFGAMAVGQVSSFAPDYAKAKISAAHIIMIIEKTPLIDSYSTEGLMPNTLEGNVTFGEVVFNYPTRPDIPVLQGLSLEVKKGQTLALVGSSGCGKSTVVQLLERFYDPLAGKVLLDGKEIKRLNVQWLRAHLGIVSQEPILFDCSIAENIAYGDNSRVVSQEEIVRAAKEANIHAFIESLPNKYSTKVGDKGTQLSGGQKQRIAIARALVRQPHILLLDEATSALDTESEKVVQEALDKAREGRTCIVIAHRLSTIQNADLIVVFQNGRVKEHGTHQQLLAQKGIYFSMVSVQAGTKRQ
CYP3A4, sequence (P08684 whole entry): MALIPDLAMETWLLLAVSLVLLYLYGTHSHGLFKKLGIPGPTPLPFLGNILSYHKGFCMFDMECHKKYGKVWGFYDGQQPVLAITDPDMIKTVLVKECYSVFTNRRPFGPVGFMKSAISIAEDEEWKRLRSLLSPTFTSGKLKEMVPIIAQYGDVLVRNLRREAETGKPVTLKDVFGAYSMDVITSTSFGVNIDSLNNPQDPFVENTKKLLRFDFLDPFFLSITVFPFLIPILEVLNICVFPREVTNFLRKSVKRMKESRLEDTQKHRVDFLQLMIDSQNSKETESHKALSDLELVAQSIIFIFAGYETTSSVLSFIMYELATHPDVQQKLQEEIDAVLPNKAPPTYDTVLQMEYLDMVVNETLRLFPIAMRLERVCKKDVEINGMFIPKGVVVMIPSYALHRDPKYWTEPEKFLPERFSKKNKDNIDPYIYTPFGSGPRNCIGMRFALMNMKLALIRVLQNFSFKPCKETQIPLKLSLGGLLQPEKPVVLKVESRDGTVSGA
CYP2C19, sequence (P33261 whole entry): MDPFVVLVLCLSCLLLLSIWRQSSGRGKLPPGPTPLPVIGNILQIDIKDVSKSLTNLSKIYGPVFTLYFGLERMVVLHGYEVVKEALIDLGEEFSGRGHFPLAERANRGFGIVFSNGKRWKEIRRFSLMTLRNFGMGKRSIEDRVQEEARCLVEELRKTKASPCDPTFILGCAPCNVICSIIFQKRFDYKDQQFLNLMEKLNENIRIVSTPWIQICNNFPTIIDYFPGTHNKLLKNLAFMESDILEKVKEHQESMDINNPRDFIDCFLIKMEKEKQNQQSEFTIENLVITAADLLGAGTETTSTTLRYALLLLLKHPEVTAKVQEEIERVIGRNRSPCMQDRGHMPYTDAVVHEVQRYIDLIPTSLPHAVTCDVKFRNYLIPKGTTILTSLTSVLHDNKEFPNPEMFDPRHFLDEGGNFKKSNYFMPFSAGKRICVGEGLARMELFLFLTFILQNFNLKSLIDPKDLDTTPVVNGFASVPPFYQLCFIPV

CC(C)NC(=O)COc1cccc(-c2nc(Nc3ccc4[nH]ncc4c3)c3ccccc3n2)c1 [belumosudil, 2-{3-[4-(1H-indazol-5-ylamino)-2-quinazolinyl]phenoxy}-N-(propan-2-yl) acetamide]
solubility [1]: pH dependent | metabolism [2]: primarily dependent on cytochrome P450 CYP3A4 activity | AUC(0-tau), geometric mean [3, 16]: 8490 ng·h/mL | Cmax, geometric mean [3, 16]: 1710 ng/mL | T1/2, geometric mean [3, 16]: 6.199 h | AUC(0-last), geometric mean [3, 17]: 12 000 ng · h/mL | Cmax, geometric mean [3, 17]: 2180 ng/mL | T1/2, geometric mean [3, 17]: 10.371 h | AUC ([3]; male, human, plasma, oral, 200 mg QD, read-out: AUC(0-tau), geometric mean): 11000 ng·h/mL | half-life ([3]; male, human, plasma, oral, 200 mg, Part 2, Belumosudil alone (Day 5), 200 mg): ~6 h | half-life ([3]; male, human, plasma, oral, 200 mg, Part 2, Dabigatran etexilate + belumosudil (Day 12), 200 mg QD): ~10 h | Tmax ([3]; male, human, plasma, oral, 200 mg, read-out: median Tmax): 1.5 to 2 h | maternal exposures (AUC) with adverse developmental outcomes, times the human exposure (AUC) at the recommended dose ([4]; pregnant rats, period of organogenesis): ≥ 3 times | dose with fetal malformations ([4]; rats, oral, pilot study): ≥ 50 mg/kg/day | dose with maternal toxicity (reduced body weight gain) ([4]; rats, oral, pilot study): 150 mg/kg/day and 300 mg/kg/day | Cmax and AUC increase with dose [5]: approximately proportional | AUC increase with high-fat and high-calorie meal compared to fasted state ([6]; single dose): 2 times | Cmax increase with high-fat and high-calorie meal compared to fasted state ([6]; single dose): 2.2 times | radioactivity recovered in feces [6, 18]: 85% | radioactivity recovered in feces as unchanged [6, 18]: 30% | radioactivity recovered in urine [6, 18]: less than 5% | binding to human […]1-acid glycoprotein [7]: 98.6% | P-gp inhibition ([8]; at clinically relevant concentrations): inhibits | P-gp substrate status [8]: substrate of P-gp | CYP1A2 inhibition [9]: inhibitor | CYP2C19 inhibition [10]: inhibitor | UGT1A1 inhibition [11]: inhibitor | UGT1A9 inhibition [12]: inhibitor | genotoxicity [13]: not genotoxic | genotoxicity [14]: not genotoxic | dose with spermatozoa degeneration [15]: 35 mg/kg/day

Reference: patent US20260232763A1 (Kadmon Corporation, LLC, priority 2023, published 2026)
